Measured values as given in US20250215101A1, “DR5 Agonist and PLK1 Inhibitor or CDK Inhibitor Combination Therapy” (Inhibrx Biosciences, Inc., priority 2022, published 2025).

How the values were obtained:
Test in all cases: Cytotoxicity assay, colorectal cancer cell line panel, onvansertib +/- 1 nM INBRX-109
Format in all cases: cell-based
Hutu 80 = details: for EC50: Homo sapiens, HuTu80, Hutu 80; for Max Cytotox at 600 nM: Hutu 80
Protocol: (§1) Monolayer cultures of each cell line were harvested for compound screening as detailed below.
(§2) Also on day 2, test and control articles were added.
(§3) On day 4, viability measurements were taken. […] Data was graphed in GraphPad Prism 9.
(§4) The results for a panel of colorectal cancer cell lines are shown in Table 3 and FIGS. 4-6, and the results for a panel of pancreatic cell lines are shown in Table 4 and FIGS. 7 and 8.

SNU-C5 = system: SNU-C5
Protocol: as §1, §2, §3, §4

SK-CO-1 = details: for EC50: Homo sapiens, SK-CO-1, SK-CO-1; for Max Cytotox at 600 nM: SK-CO-1
Protocol: as §1, §2, §3, §4

SW-403 = details: for EC50: Homo sapiens, SW-403, SW-403; for Max Cytotox at 600 nM: SW-403
Protocol: as §1, §2, §3, §4

SW-1116 = details: for EC50: Homo sapiens, SW 1116, SW-1116; for Max Cytotox at 600 nM: SW-1116
Protocol: as §1, §2, §3, §4

SW-48 = details: for EC50: Homo sapiens, SW48, SW-48; for Max Cytotox at 600 nM: SW-48
Protocol: as §1, §2, §3, §4

NCI-H716 = details: for EC50: Homo sapiens, NCI-H716, NCI-H716; for Max Cytotox at 600 nM: NCI-H716
Protocol: as §1, §2, §3, §4

DLD-1 = details: for Max Cytotox at 600 nM: DLD-1; for EC50: Homo sapiens, DLD-1, DLD-1
Protocol: as §1, §2, §3, §4

COLO320DM = details: for EC50: Homo sapiens, COLO 320DM
Protocol: as §1, §2, §3, §4

NCI-H747 = details: for EC50: Homo sapiens, NCI-H747, NCI-H747; for Max Cytotox at 600 nM: NCI-H747
Protocol: as §1, §2, §3, §4

RKO = details: for EC50: Homo sapiens
Protocol: as §1, §2, §3, §4

HCT 116 = details: for Max Cytotox at 600 nM: HCT 116; for EC50: Homo sapiens, HCT-116, HCT 116
Protocol: as §1, §2, §3, §4

T84 = details: for EC50: Homo sapiens, T84, T84; for Max Cytotox at 600 nM: T84
Protocol: as §1, §2, §3, §4

LS 513 = details: for EC50: Homo sapiens, LS-513, LS 513; for Max Cytotox at 600 nM: LS 513
Protocol: as §1, §2, §3, §4

SW-837 = details: for EC50: Homo sapiens, SW837, SW-837; for Max Cytotox at 600 nM: SW-837
Protocol: as §1, §2, §3, §4

LS 1034 = details: for EC50: Homo sapiens, LS-1034, LS 1034; for Max Cytotox at 600 nM: LS 1034
Protocol: as §1, §2, §3, §4

SW-1463 = details: for EC50: Homo sapiens, SW1463, SW-1463; for Max Cytotox at 600 nM: SW-1463
Protocol: as §1, §2, §3, §4

SNU-C2A = system: SNU-C2A
Protocol: as §1, §2, §3, §4

SW620 = details: for EC50: Homo sapiens, SW-620, SW620; for Max Cytotox at 600 nM: SW620
Protocol: as §1, §2, §3, §4

HCT-8 = details: for Max Cytotox at 600 nM: HCT-8; for EC50: Homo sapiens, HCT-8, HCT-8
Protocol: as §1, §2, §3, §4

HT-29 = details: for Max Cytotox at 600 nM: HT-29; for EC50: Homo sapiens, HT-29, HT-29
Protocol: as §1, §2, §3, §4

LS 180 = details: for EC50: Homo sapiens, LS180, LS 180; for Max Cytotox at 600 nM: LS 180
Protocol: as §1, §2, §3, §4

HT-55 = details: for Max Cytotox at 600 nM: HT-55; for EC50: Homo sapiens, HT55, HT-55
Protocol: as §1, §2, §3, §4

SW-480 = details: for EC50: Homo sapiens, SW480, SW-480; for Max Cytotox at 600 nM: SW-480
Protocol: as §1, §2, §3, §4

SNU-81 = system: SNU-81
Protocol: as §1, §2, §3, §4

LS 123 = details: for EC50: Homo sapiens, LS-123, LS 123; for Max Cytotox at 600 nM: LS 123
Protocol: as §1, §2, §3, §4

SW-948 = details: for EC50: Homo sapiens, SW948, SW-948; for Max Cytotox at 600 nM: SW-948
Protocol: as §1, §2, §3, §4

LoVo = details: for EC50: Homo sapiens
Protocol: as §1, §2, §3, §4

LS174T = details: for EC50: Homo sapiens
Protocol: as §1, §2, §3, §4

HCT-15 = details: for Max Cytotox at 600 nM: HCT-15; for EC50: Homo sapiens, HCT-15, HCT-15
Protocol: as §1, §2, §3, §4

## CN1CCN(c2ccc(OC(F)(F)F)c(Nc3ncc4c(n3)-c3c(c(C(N)=O)nn3CCO)CC4)c2)CC1 [Onvansertib]
Hutu 80; onvansertib + 1 nM INBRX-109
  EC50: 133 nM
  Max Cytotox at 600 nM: 86.5%
Hutu 80; onvansertib only
  EC50: 138 nM
  Max Cytotox at 600 nM: 85.4%
SNU-C5; onvansertib + 1 nM INBRX-109
  EC50: 57.7 nM
  Max Cytotox at 600 nM: 87.7%
SNU-C5; onvansertib only
  EC50: 95.6 nM
  Max Cytotox at 600 nM: 42.9%
SK-CO-1; onvansertib + 1 nM INBRX-109
  EC50: 111 nM
  Max Cytotox at 600 nM: 94.2%
SK-CO-1; onvansertib only
  EC50: 113 nM
  Max Cytotox at 600 nM: 52.8%
SW-403; onvansertib + 1 nM INBRX-109
  EC50: 64.9 nM
  Max Cytotox at 600 nM: 89.0%
SW-403; onvansertib only
  EC50: 62.5 nM
  Max Cytotox at 600 nM: 46.4%
SW-1116; onvansertib + 1 nM INBRX-109
  EC50: 411 nM
  Max Cytotox at 600 nM: 39.4%
SW-1116; onvansertib only
  EC50: 441 nM
  Max Cytotox at 600 nM: 10.4%
SW-48; onvansertib + 1 nM INBRX-109
  EC50: 28.3 nM
  Max Cytotox at 600 nM: 99.4%
SW-48; onvansertib only
  EC50: 37.3 nM
  Max Cytotox at 600 nM: 76.6%
NCI-H716; onvansertib + 1 nM INBRX-109
  EC50: 83.6 nM
  Max Cytotox at 600 nM: 51.2%
NCI-H716; onvansertib only
  EC50: 81.3 nM
  Max Cytotox at 600 nM: 34.8%
DLD-1; onvansertib + 1 nM INBRX-109
  Max Cytotox at 600 nM: 90.4%
  EC50: 184 nM
DLD-1; onvansertib only
  Max Cytotox at 600 nM: 45.8%
  EC50: 280 nM
COLO320DM; onvansertib + 1 nM INBRX-109
  EC50: 283 nM
  Max Cytotox at 600 nM: 79.6%
COLO320DM; onvansertib only
  EC50: 382 nM
  Max Cytotox at 600 nM: 58.3%
NCI-H747; onvansertib + 1 nM INBRX-109
  EC50: 78.7 nM
  Max Cytotox at 600 nM: 44.5%
NCI-H747; onvansertib only
  EC50: 71.6 nM
  Max Cytotox at 600 nM: 17.4%
RKO; onvansertib + 1 nM INBRX-109
  EC50: 54.7 nM
  Max Cytotox at 600 nM: 93.8%
RKO; onvansertib only
  EC50: 85.9 nM
  Max Cytotox at 600 nM: 65.7%
HCT 116; onvansertib + 1 nM INBRX-109
  Max Cytotox at 600 nM: 96.6%
  EC50: 66.8 nM
HCT 116; onvansertib only
  Max Cytotox at 600 nM: 76.0%
  EC50: 112 nM
T84; onvansertib + 1 nM INBRX-109
  EC50: 297 nM
  Max Cytotox at 600 nM: 62.9%
T84; onvansertib only
  EC50: 355 nM
  Max Cytotox at 600 nM: 32.1%
LS 513; onvansertib + 1 nM INBRX-109
  EC50: 101 nM
  Max Cytotox at 600 nM: 93.7%
LS 513; onvansertib only
  EC50: 215 nM
  Max Cytotox at 600 nM: 39.6%
SW-837; onvansertib + 1 nM INBRX-109
  EC50: 184 nM
  Max Cytotox at 600 nM: 73.5%
SW-837; onvansertib only
  EC50: 227 nM
  Max Cytotox at 600 nM: 24.5%
LS 1034; onvansertib + 1 nM INBRX-109
  EC50: 199 nM
  Max Cytotox at 600 nM: 85.8%
LS 1034; onvansertib only
  EC50: 237 nM
  Max Cytotox at 600 nM: 38.8%
SW-1463; onvansertib + 1 nM INBRX-109
  EC50: 98 nM
  Max Cytotox at 600 nM: 64.2%
SW-1463; onvansertib only
  EC50: 201 nM
  Max Cytotox at 600 nM: 21.0%
SNU-C2A; onvansertib + 1 nM INBRX-109
  EC50: 42.9 nM
  Max Cytotox at 600 nM: 78.0%
SNU-C2A; onvansertib only
  EC50: 72.7 nM
  Max Cytotox at 600 nM: 42.9%
SW620; onvansertib + 1 nM INBRX-109
  EC50: 54.6 nM
  Max Cytotox at 600 nM: 90.4%
SW620; onvansertib only
  EC50: 62.1 nM
  Max Cytotox at 600 nM: 61.8%
HCT-8; onvansertib + 1 nM INBRX-109
  Max Cytotox at 600 nM: 81.3%
  EC50: 200 nM
HCT-8; onvansertib only
  Max Cytotox at 600 nM: 52.7%
  EC50: 205 nM
HT-29; onvansertib + 1 nM INBRX-109
  Max Cytotox at 600 nM: 98.3%
  EC50: 43 nM
HT-29; onvansertib only
  Max Cytotox at 600 nM: 45.6%
  EC50: 61.6 nM
LS 180; onvansertib + 1 nM INBRX-109
  EC50: 197 nM
  Max Cytotox at 600 nM: 86.2%
LS 180; onvansertib only
  EC50: 505 nM
  Max Cytotox at 600 nM: 42.9%
HT-55; onvansertib + 1 nM INBRX-109
  Max Cytotox at 600 nM: 87.9%
  EC50: 44.1 nM
HT-55; onvansertib only
  Max Cytotox at 600 nM: 41.8%
  EC50: 51.4 nM
SW-480; onvansertib + 1 nM INBRX-109
  EC50: 93.3 nM
  Max Cytotox at 600 nM: 86.3%
SW-480; onvansertib only
  EC50: 126 nM
  Max Cytotox at 600 nM: 40.7%
SNU-81; onvansertib + 1 nM INBRX-109
  EC50: 71.9 nM
  Max Cytotox at 600 nM: 92.3%
SNU-81; onvansertib only
  EC50: 187 nM
  Max Cytotox at 600 nM: 24.3%
LS 123; onvansertib + 1 nM INBRX-109
  EC50: 172 nM
  Max Cytotox at 600 nM: 24.1%
LS 123; onvansertib only
  EC50: 150 nM
  Max Cytotox at 600 nM: 9.6%
SW-948; onvansertib + 1 nM INBRX-109
  EC50: 23.3 nM
  Max Cytotox at 600 nM: 99.0%
SW-948; onvansertib only
  EC50: 97 nM
  Max Cytotox at 600 nM: 43.2%
LoVo; onvansertib + 1 nM INBRX-109
  EC50: 41.8 nM
  Max Cytotox at 600 nM: 90.8%
LoVo; onvansertib only
  EC50: 34.1 nM
  Max Cytotox at 600 nM: 29.6%
LS174T; onvansertib + 1 nM INBRX-109
  EC50: 109 nM
  Max Cytotox at 600 nM: 94.1%
LS174T; onvansertib only
  EC50: 252 nM
  Max Cytotox at 600 nM: 59.5%
HCT-15; onvansertib + 1 nM INBRX-109
  Max Cytotox at 600 nM: 94.9%
  EC50: 175 nM
HCT-15; onvansertib only
  Max Cytotox at 600 nM: 61.4%
  EC50: 268 nM
